Values joined by “and” are separate entries in the source; they are usually repeats but may differ in a detail not shown here. Identical values can stand only once. “Also recorded” adds a separate entry of the source.
Tests used:
[1] = system: CD4^+ T-cell populations with increasing densities of CD25; experiment: 7-AAD staining of CD4+ T-cell populations; format: cell-based, human
[2] = system: responder cells (PBMC) in MLR; experiment: Allogeneic DC-stimulated mixed lymphocyte reaction (MLR) proliferation; format: cell-based, human
[3] = system: antigen-specific CTL from PBMC; experiment: 51Cr cytotoxicity assay of CTL stimulated from DAB389IL-2-depleted PBMC; format: cell-based, human
[4] = system: CD4^+/CD25^+ T cells of study subjects; experiment: Treg functional evaluation (suppression of anti-CD3/CD28 activated indicator T cells); format: in vivo, human; conditions: CD4^+/CD25^+ T cells isolated prior to vs 4 days after treatment
Experimental: The suppressive activity of Treg isolated from PBMC of study subjects prior to and 4 days after […] administration was analyzed, as described previously^25. CD4^+/CD25^+ T cells were isolated from the PBMC of study subjects using magnetic bead separation techniques. Cells were washed with PBS, resuspended in complete RPMI 1640 medium, and placed into 96-well round bottom plates pre-coated with anti-CD3/CD28 antibodies (0.4 μg/well) (Caltag). CD4^+/CD25^− cells were plated at 2.0×10^4/well alone or in combination with CD4^+/CD25^+ cells in triplicate wells at a ratio of 1:2 (CD4^+/CD25^−:CD4^+CD25^+). On day 5, 1 μCi of ^3H thymidine was added for the final 16 hr of the cultures. Cells were then harvested on glass fiber filters and assessed for uptake of radiolabeled thymidine.

[5] = system: CD3+, CD4+, CD8^+ T cells, B cells, monocytes/macrophages, NK cells; experiment: Relative numbers of leukocyte subsets before and after DAB389IL-2; format: in vivo, human
Experimental: Using these methods, the degree of regulatory T cell depletion efficacy in the four subjects treated on the clinical protocol was determined.

tumor-specific T cells = experiment: Interferon-γ ELISPOT of vaccine-induced tumor-specific T cells in patients; format: in vivo, human
Experimental: PBMC were cultured overnight in RPMI 1640 medium supplemented with 10% FCS. […] After washing, spots were counted using an automated Zeiss KS Elispot Compact reader (Carl Zeiss Inc., Minneapolis, Minn.).
In order to determine whether DAB389IL-2-mediated regulatory T cell depletion is capable of augmenting vaccine-induced CTL responses in vivo, Interferon-γ ELISPOT analysis was used to determine the frequencies of vaccine-induced, tumor-specific T cells from PBMC samples collected prior to (white bars) and two weeks after (grey bars) the third vaccination (study week 8). Purified CD8^+ T cells were isolated from pre- and post-vaccination PBMCs and were cultured overnight with tumor RNA transfected DC targets. As controls, PBMC RNA or benign renal epithelium (RE)-derived RNA-transfected DCs were used for short-term antigenic stimulation. Visible spots were then counted using an automated ELISPOT reader. […] In contrast, a significant increase of tumor-specific T cells was consistently observed in the treated subjects after vaccination. […]
Pre- and post-treatment T-cell analysis was performed by Interferon-γ ELISPOT on all patients who completed immunotherapy. Increases of antigen-specific CD4^+ and CD8^+ T cells after vaccination were compared using the Wilcoxon matched-pairs signed rank test, analyzing the null hypothesis that the rates of change in T-cell response were equivalent prior to and after therapy. A two-sided p-value of <0.05 was considered statistically significant.
In order to determine whether DAB389IL-2-mediated Treg depletion is capable of augmenting vaccine-induced CD8^+ and CD4^+ T-cell responses in cancer patients, Interferon-γ ELISPOT analyses were performed to determine the frequencies of vaccine-induced, tumor-specific T cells from PBMC samples collected before and two weeks after the third vaccination. CD8^+ and CD4^+ T cells were isolated from pre- and post-vaccination PBMC and cultured overnight with tumor RNA-transfected DC targets. As controls, autologous PBMC RNA or autologous benign renal epithelium (RE)-derived RNA-transfected DC were used for short-term antigenic stimulation. As exemplified by the 3 study subjects shown in FIG. 10A, only background levels of PBMC-specific T cells were observed before (white bars) or after vaccination (grey bars).

[6] = system: renal tumor-specific CD4^+ T cells; experiment: Cytokine profile of vaccine-induced CD4+ T cells (ELISPOT, Th1/Th2 bead array); format: in vivo, human
[7] = system: CD4^+CD25^int memory T-cell pool; conditions: after DAB389IL-2 administration; fluM1, CMV, tetanus toxoid
PBMC = experiment: MTT viability of PBMC (bystander toxicity); conditions: DAB389IL-2 5 nM
[8] = 6 RCC patients, DAB389IL-2 plus RCC RNA-transfected DC
[9] = per patient, DAB389IL-2 4 days prior to tumor RNA-transfected DC vaccination

With denileukin diftitox [DAB389IL-2] the “7-AAD staining of other CD4^+ T cells with lower or no CD25 expression” value [1] was “only background levels of 7-AAD staining”, the “concentration giving optimal killing of CD4^+/CD25^high Treg” value ([1]; 7-AAD staining) was 5 nM and the “proliferation of responder cells” value ([2]; DAB389IL-2 added two days after initiation of the MLR) was “completely abrogated the proliferation of responder cells”. For the same substance, the “inhibitory effect of Treg added to MLR” value ([2]; pre-incubation of Treg with DAB389IL-2 5 nM) was “significantly abrogated their inhibitory effect”, the “improvement of antigen-specific killing” value ([3]; MART-1 peptide-pulsed DC as stimulators, DAB389IL-2 5 nM) was “only modest, statistically insignificant improvement of antigen-specific killing” and the “lytic activity of CTL stimulated from Treg-depleted vs non-depleted PBMC” value ([3]; mRNA-transfected DC stimulators (hTERT, MART-1)) was “higher lytic activity against their cognate targets; also recorded: significantly higher lytic activity”. The “improvement of CTL responses” value ([3]; recall antigen fluM1, or peptide-loaded DC as stimulators) was “ineffective in improving CTL responses”, the Treg-mediated immunosuppressive activity [4] was “abrogation of Treg-mediated immunosuppressive activity in vivo” and the “change in CD8^+/CD25^+ or CD19^+/CD25^+ cells” value ([5]; one subject analyzed) was “no decrease”. The “change in relative number of CD3+, CD4+, CD8+ T cells, B cells, monocytes/macrophages and NK cells” value ([5]; prior to and after treatment) was “no significant changes”, the “median increase in tumor-specific CD4^+ T cells” value (tumor-specific T cells; [8]) was 7.2 fold and the “median increase in tumor-specific CD8^+ T cells” value (tumor-specific T cells; [8]) was 7.9 fold. The “tumor-specific T-cell response after DAB389IL-2 alone” value (tumor-specific T cells; DAB389IL-2 only, no vaccine) was “did not increase a tumor-specific CTL response in vivo; also recorded: did not significantly increase”, the “tumor-specific (CD8^+) T cells vs vaccination alone” value (tumor-specific T cells; DAB389IL-2 plus vaccination compared with vaccine alone) was “significantly higher numbers of tumor-specific CD8^+ T cells” and the “increase in tumor-specific CTL frequencies” value (tumor-specific T cells; Example 2, subjects receiving combined treatment) was “up to 16 fold”. The “CD4^+ T-cell responses vs vaccination alone” value (tumor-specific T cells; combined therapy, RCC patients, p=0.055) was “trend towards improved CD4^+ T-cell responses”, the “ELISPOT (Fold increase after vaccination) CD4^+” value (tumor-specific T cells; [9]) was 7.6 fold and 6.3 fold and 2.2 fold and 9.7 fold and 31.0 fold and 6.8 fold and 4.5 fold and the “ELISPOT (Fold increase after vaccination) CD8^+” value (tumor-specific T cells; [9]) was 16.0 fold and 12.5 fold and 5.4 fold and 7.4 fold and 7.8 fold (2×) and 8.0 fold. For the same substance, the “longitudinal vaccine-induced CD8^+ T-cell response” value (tumor-specific T cells; subject 02-DAB vs 11-RCC) was “significantly enhanced and also prolonged CD8^+ T-cell response”, the “Th1/Th2 cytokine secretion by vaccine-induced T cells (bead array)” value ([6]; 18 hours stimulation with RCC RNA-transfected DC) was “secretion of Th-1 type cytokines (IL-2, Interferon-γ, or TNF-α), but not Th-2 type cytokines” and the “Interferon-γ / IL-4 secreting renal tumor-specific CD4 T cells (ELISPOT)” value ([6]; one subject, DAB389IL-2 followed by vaccination) was “stimulation of Interferon-γ, but not IL-4-secreting renal tumor-specific CD4 T cells”. The “antigen-specific proliferative reactivities against recall antigens” value [7] was “unchanged reactivities” and the “PBMC viability over time” value (PBMC) was “no significant differences in PBMC viability”.

Source: patent US20060002932A1, “Methods and compositions for enhancement of immunity by in vivo depletion of immunosuppressive cell activity” (priority 2004, published 2006)
